From PMC9098178, “SAR of Novel 3-Arylisoquinolinones: meta-Substitution on the Aryl Ring Dramatically Enhances Antiproliferative Activity through Binding to Microtubules” (Journal of Medicinal Chemistry, 2022) come the findings set out here.

The subject of one data set is purified bovine tubulin. In words: Cell-free tubulin polymerization assay. Type of data set: biochemical. The text has this:
Experimentally, the direct interaction of 4 with tubulin was investigated in a cell-free system using a tubulin polymerization assay. […] In control samples, α- and β-tubulin subunits were able to heterodimerize and assemble into microtubules in a time-dependent manner as indicated by increasing absorbance values over time. […] This indicates the incidence of fast polymerization associated with the formation of a denser microtubule mass. […] It is worth mentioning that microtubule dynamics can be potently altered by microtubule-stabilizing or -destabilizing compounds at doses 10- to 100-fold lower than those required for increasing or decreasing the microtubule polymer mass.[31]
The cell-free tubulin polymerization experiment was performed using the Tubulin Polymerization Assay Kit according to the manufacturer’s instructions (Millipore, Cat# 17-10194). The light absorbed by microtubules, which were formed upon tubulin polymerization, is directly proportional to the polymer mass. […] Immediately, the plate was placed in a 37 °C-prewarmed plate reader (BMG LABTECH FLUOstar Omega, Germany) and the absorbance was measured at 1 min intervals for 60 min at a wavelength of 350 nm. The delta absorbance (ΔA) was calculated by subtracting the absorbance values of zero time from those of the subsequent time points and then plotted versus time.

The subject of data set [1] is HUVECs. In words: Cytoskeleton immunofluorescence. Type of data set: cell-based, human. As to conditions: 0.5, 1 μM, 24 h. The text has this: The disruption was characterized by shortened microtubules with outer blebbing filled with tubulin and thicker and brighter actin fibers (stress fibers). Many rounded and retracted cells were also observed in HUVECs treated with 4. […] Taken together, 4 induced morphological alterations in endothelial cells are possibly the reason behind the disruption of the preexisting tubes of HUVECs cultured on Matrigel. […] Throughout the next steps, all of the reagents were removed by washing, flicking, and gently dabbing the slide against a tissue paper. The cells were then washed with PBS containing calcium and magnesium (Sigma, Cat# D1283), fixed with 10% formalin solution (Sigma, Cat# HT5014) for 15 min, and permeabilized with 0.2% (v/v) Triton X-100 for 5 min. Next, the cells were exposed to 1 h incubation with blocking buffer made of 10% (v/v) normal goat serum (Vector Laboratories, Cat# S-1000), 1% (w/v) bovine serum albumin (Sigma, Cat# A9418), and 0.3 M glycine in PBS-T (0.05% Tween-20 in PBS). The cells were then incubated with rabbit α-tubulin primary antibody (1:1000 in the blocking buffer, Abcam, Cat# ab52866) for 2 h at RT after three times washing with PBS-T, each for 5 min. […] Finally, the cytoskeleton was visualized at 63x, oil-based magnification using fluorescence, inverted microscope (Leica DMI6000B, Leica Microsystems). […]

Data set [2] deals with HUVECs. In words: SRB assay of endothelial cell proliferation. As to conditions: 24 h, up to 10 μM. The class given is cell-based. Here is the method: Compound 4 was further elucidated whether it blocked the formation of capillary-like tubes and disrupted the already existing tubes of HUVECs as a result of inducing endothelial cell death. Accordingly, the growth of HUVECs treated with 4 was investigated using the SRB assay. HUVECs were plated on 96-well plates without prior coating with Matrigel and then exposed to different concentrations of 4 for 24 h.
All cell lines used in the study were human-derived and purchased from ATCC (Manassas, USA). Breast adenocarcinoma MCF-7 and MDA-MB-231 cell lines were cultured in DMEM. Hepatocellular carcinoma HepG2 and SNU423 cell lines were grown in MEME combined with 1% (v/v) nonessential amino acids and RPMI supplemented with 2 mM glutamine, respectively. Lung adenocarcinoma A549 and colorectal carcinoma HCT116 cells were grown in RPMI (+2 mM glutamine). […]
Screening of the antiproliferative activity of 3-arylisoquinolinones was performed using the SRB assay as previously described.[56] […] Finally, the cellular protein-bound SRB was thoroughly dissolved in 10 mM Tris base, and the OD values were read at 510 nm using a plate reader (μQuant Microplate Spectrophotometer, Biotek, U.K.) coupled with Gen5 software (BioTek, U.K.). […] Cell growth was calculated using the following formula: cell growth (%) = (ODtest/ODcontrol) × 100.

A further data set concerns MDA-MB-231. As to the kind of experiment: SRB antiproliferative assay, MDA-MB-231. The class given is cell-based, human. The conditions noted are these: Homo sapiens, MDA-MB-231, 96 h treatment, mean ± SEM, read-out: IC50 MDA-MB-231. Here is the method: (§1) In light of this substantial change in activity between the meta and para compounds, a more comprehensive analysis of the antiproliferative activity was performed for the meta-/para-3-arylisoquinolinone pairs 2 and 3, 4, and 5, as well as 6. A panel of breast (MDA-MB-231), liver (HepG2, SNU423), lung (A549), and colon (HCT116) cancer cell lines were treated with the five 3-arylisoquinolinone analogs for 96 h followed by the SRB assay. The dose–response curves (including those for MCF-7) are presented in Figure S22, and their relevant IC50 values are listed in Table 1. […] The differential activity between meta- and para-3-arylisoquinolinones was reproduced in the National Cancer Institute (NCI) one-dose screen using a panel of 59 cancer cell lines (Figure S23).
(§2) All cell lines used in the study were human-derived and purchased from ATCC (Manassas, USA). Breast adenocarcinoma MCF-7 and MDA-MB-231 cell lines were cultured in DMEM. Hepatocellular carcinoma HepG2 and SNU423 cell lines were grown in MEME combined with 1% (v/v) nonessential amino acids and RPMI supplemented with 2 mM glutamine, respectively. Lung adenocarcinoma A549 and colorectal carcinoma HCT116 cells were grown in RPMI (+2 mM glutamine). All previous media were further supplemented with 10% heat-inactivated fetal bovine serum. The immortalized, normal liver THLE-3 cells were grown in BEGM (Lonza, Cat# CC-3170) onto precoated vessels according to ATCC’s instructions. Human umbilical vein endothelial cells (HUVECs) were cultured in EGM-2 (Lonza, Cat# CC-3162). All of the cells were maintained at 37 °C and 5% CO2 in a humidified incubator.
(§3) Screening of the antiproliferative activity of 3-arylisoquinolinones was performed using the SRB assay as previously described.[56] Exponentially growing HepG2, SNU423, MDA-MB-231, MCF-7, A549, HCT116, THLE-3, and HUVECs were seeded in 96-well plates at densities of 3000, 2000, 1500, 2500, 1000, 1000, 4000, and 4000 cells/well, respectively. These densities were experimentally selected so that the DMSO-treated cells (control) were approximately 80–90% confluent at the assay’s endpoint, and their optical density (OD) values fell within the assay’s linear range. After overnight incubation, the cells were treated with a range of concentrations of the respective compounds for 96 h, 24 h followed by 72 h compound-free incubation or 24 h (for HUVECs only). After treatment, cell monolayers were fixed with 10% (w/v) trichloroacetic acid for 1 h at 4 °C, washed, and dried. Then, the cells were exposed to 0.4% (w/v) SRB dye (prepared in 1% (v/v) acetic acid; Botium, Cat# 80100) for 15 min followed by several 1% acetic acid washing and then drying. Finally, the cellular protein-bound SRB was thoroughly dissolved in 10 mM Tris base, and the OD values were read at 510 nm using a plate reader (μQuant Microplate Spectrophotometer, Biotek, U.K.) coupled with Gen5 software (BioTek, U.K.). Compound-induced changes in cell growth were inferred from changes in OD values. Cell growth was calculated using the following formula: cell growth (%) = (ODtest/ODcontrol) × 100.

The test system of the next data set is HCT116. In words: SRB antiproliferative assay, HCT116. The class given is cell-based, human. As to conditions: Homo sapiens, HCT-116, 96 h treatment, mean ± SEM, read-out: IC50 HCT116. Here is the method: as §1, §2, §3
For orientation: The SRB assay estimates cell density from bound dye.

For `O=c1[nH]c(-c2cccc(F)c2)cc2cc(F)ccc12` [compound 4, 6-Fluoro-3-(3-fluorophenyl)isoquinolin-1(2H)-one], in the data set on purified bovine tubulin (20 μM, nocodazole 10 μM), the “suppression of tubulin polymerization at highest concentration” value is listed as “as effective in suppressing tubulin polymerization as the positive control (nocodazole)”. Further, in the data set with purified bovine tubulin (5, 10, 20 μM, 37 °C, absorbance 350 nm), the “effect on tubulin polymerization” value is reported as “hindered tubulin polymerization in a concentration-dependent manner”. Moreover, the “effect on cytoskeleton network (actin and microtubules)” value with HUVECs [1] is listed as “marked disruption in the cytoskeleton network”. Further, in the data set on HUVECs [2], the “effect on proliferation of HUVECs” value is “not able to significantly diminish the proliferation of HUVECs”.

With `O=c1[nH]c(-c2ccc(F)cc2)cc2cc(F)ccc12` [compound 5, 6-Fluoro-3-(4-fluorophenyl)isoquinolin-1(2H)-one], the IC50 in the data set with MDA-MB-231 and in the data set with HCT116 was over 50 µM each time.
